Test results published in article PMC11760959, “Broad substrate scope C-C oxidation in cyclodipeptides catalysed by a flavin-dependent filament” (Nature Communications, 2025).

What was measured:
NdasCDO = test system: T1, NdasCDO; experiment: UV absorbance, initial rates; format: biochemical, Nocardiopsis dassonvillei; settings: 50 mM Tris pH 9.0, 200 mM NaCl, 30 °C; O2 as oxidant
T1 construct: gene Ndas1146; both subunits co-expressed from pRSFDuet-1 in E. coli BL21(DE3), nickel HisTrap purified; A monomer 22 kDa, B monomer 11 kDa; filament of alternating A and B homodimers (A2B2 repeat)

[1] = molecular target: NdasCDO subunit A (NdasCDO-A), cyclodipeptide oxidase subunit A from Nocardiopsis dassonvillei (Nocardiopsis dassonvillei) (UniProt D7B1W6); experiment: cryo-EM structure; helical reconstruction of NdasCDO filaments; purified complex dialysed against 20 mM Tris pH 9, 200 mM NaCl, 5 mM DTT, 4 uM on the grid; local refinement with a mask over two dimers of subunit A and two dimers of subunit B
[2] = molecular target: NdasCDO subunit B (NdasCDO-B), cyclodipeptide oxidase subunit B from Nocardiopsis dassonvillei (Nocardiopsis dassonvillei) (UniProt D7B1W7); experiment: as above

Km (NdasCDO) [µM]	Compound	also measured
4200	O=C1CNC(=O)[C@H](Cc2ccccc2)N1 [cFG]	
80	O=C1N[C@@H](Cc2c[nH]c3ccccc23)C(=O)N[C@H]1Cc1ccccc1 [cWF]	
800	O=C1N[C@@H](Cc2c[nH]c3ccccc23)C(=O)N[C@H]1CO [cWS]	
	NdasCDO subunit A (NdasCDO-A), cyclodipeptide oxidase subunit A from Nocardiopsis dassonvillei (from UniProt D7B1W6 2-157) (enzyme)	stoichiometry N [1]: 2
	NdasCDO subunit B (NdasCDO-B), cyclodipeptide oxidase subunit B from Nocardiopsis dassonvillei (from UniProt D7B1W7 1-105) (enzyme)	stoichiometry N [2]: 2
